Reference: patent US20050192547A1, “Combinations of antiseptic and antibiotic agents containing medical devices” (priority 2002, published 2005)
In brackets after ≈: the same amount, converted by molar mass. Where two headings read alike, the source gives them in different places.

Key:
S. epidermidis [1] = assay: Minimum inhibitory concentration in Trypticase Soy Broth, synergy (fractional inhibitory concentration); type: cell-based, Staphylococcus epidermidis
S. epidermidis [2] = assay: microbe, parasite or virus in culture; type: cell-based, Staphylococcus epidermidis; conditions: for MIC: Staphylococcus epidermidis
[3] = tetrahydrofuran/methanol solvent systems
[4] = Staphylococcus epidermidis, inoculum of 10^4 cfu/ml, read-out: MIC
[5] = after 10-20 passages, inoculum 10^4 cfu/ml
[6] = after 10 transfers, inoculum 10^6 cfu/ml

Compound	MIC (S. epidermidis [2]; read-out: MIC AFTER PASSAGE) [mg/L]	INCREASE IN MIC (S. epidermidis [2]; [5])	MIC (S. epidermidis [2]; read-out: MIC BEFORE PASSAGE) [mg/L]	other results
CC(=O)O.CC(=O)O.NC(=N\CCCCCC/N=C(N)/N=C(\N)Nc1ccc(Cl)cc1)/N=C(\N)Nc1ccc(Cl)cc1 [Chlorhexidine (CHX), chlorhexidine diacetate]	–	–	–	MIC (S. epidermidis [1]; inoculum of 10^4 cfu/ml): 0.5 mg/L; INCREASE IN MIC (S. epidermidis [2]): 2 fold; MIC AFTER PASSAGE (S. epidermidis [2]): 1.0 mg/L; MIC BEFORE PASSAGE (S. epidermidis [2]): 0.5 mg/L
CN(C)c1ccc(O)c2c1C[C@H]1C[C@H]3[C@H](N(C)C)C(O)=C(C(N)=O)C(=O)[C@@]3(O)C(O)=C1C2=O [Minocycline (M), minocycline]	0.156 (≈ 0.341 µM)	2 fold	–	MIC (S. epidermidis [1]; [4]): 0.078 mg/L; INCREASE IN MIC (S. epidermidis [2]; [6]): 4 fold
CCn1cc(C(=O)O)c(=O)c2cc(F)c(N3CCNCC3)cc21 [Norfloxacin (Nf), norfloxacin]	2 (≈ 6.26 µM)	40 fold	–	MIC (S. epidermidis [1]; [4]): 0.05 mg/L; upper limit incorporated owing to low solubility [3]: about 0.5 percent (w/v)
CO[C@H]1/C=C/O[C@@]2(C)Oc3c(C)c(O)c4c(O)c(c(/C=N/N5CCN(C)CC5)c(O)c4c3C2=O)NC(=O)/C(C)=C\C=C\[C@H](C)[C@H](O)[C@@H](C)[C@@H](O)[C@@H](C)[C@H](OC(C)=O)[C@@H]1C [Rifampin (R), rifampin]	500 (≈ 608 µM)	25,000 fold	0.0195 (≈ 0.0237 µM)	–
NC[C@H]1O[C@H](O[C@H]2[C@H](O)[C@@H](O[C@H]3O[C@H](CO)[C@@H](O)[C@H](N)[C@H]3O)[C@H](N)C[C@@H]2N)[C@H](N)C[C@@H]1O [Tobramycin (Tb), tobramycin]	0.5 (≈ 1.07 µM)	20 fold	0.025 (≈ 0.0535 µM)	–
Oc1cc(Cl)ccc1Oc1ccc(Cl)cc1Cl [Triclosan (T), triclosan]	2.5 (≈ 8.63 µM)	7 fold	0.35 (≈ 1.21 µM)	MIC (S. epidermidis [1]; Staphylococcus epidermidis): 0.35 mg/L; INCREASE IN MIC (S. epidermidis [2]; [6]): 7 fold
polyhexamethylenebiguanide [PHMB]	–	–	–	INCREASE IN MIC (S. epidermidis [2]): 1.0 fold; MIC AFTER PASSAGE (S. epidermidis [2]): 0.31 mg/L; MIC BEFORE PASSAGE (S. epidermidis [2]): 0.31 mg/L
